Data as given in the NIST ThermoML archive (doi:10.1021/je030107c).
Several values for one entry are separate records, joined by “and”; a condition that tells them apart may be missing. Equal values may be shown once.

Tests used:
[1] = refractive index (Na D-line) (dimensionless); details: 101.33 kPa, Liquid, Standard Abbe refractometry
[2] = 101.3 kPa, Liquid; for viscosity: Capillary tube (Ostwald / Ubbelohde) method; for speed of sound: Linear variable-path acoustic interferometer; for mass density: Pycnometric method
[3] = refractive index (Na D-line) (dimensionless); xn = mol fraction of the nth substance listed; details: 101.3 kPa, Liquid, Standard Abbe refractometry
[4] = xn = mol fraction of the nth substance listed; details: 101.3 kPa, Liquid; for viscosity: Capillary tube (Ostwald / Ubbelohde) method; for speed of sound: Linear variable-path acoustic interferometer; for mass density: Pycnometric method

OCCO [1,2-ethanediol]
Details	mass density, 298.15 K [kg/m3]	mass density, 303.15 K [kg/m3]	mass density, 308.15 K [kg/m3]	refractive index, 298.15 K	refractive index, 303.15 K	refractive index, 308.15 K	speed of sound, 298.15 K [m/s]	viscosity, 298.15 K [mPa·s]	viscosity, 303.15 K [mPa·s]	viscosity, 308.15 K [mPa·s]
[1]	–	–	–	1.4307	1.4269	1.4246	–	–	–	–
[2]	1111.3	1107.3	1103.5	–	–	–	1659	12.62	9.618	7.539

OCCO [1,2-ethanediol] + C1COCCO1
x2 = 0
Details	mass density, 298.15 K [kg/m3]	mass density, 303.15 K [kg/m3]	mass density, 308.15 K [kg/m3]	refractive index, 298.15 K	refractive index, 303.15 K	refractive index, 308.15 K	speed of sound, 298.15 K [m/s]	viscosity, 298.15 K [mPa·s]	viscosity, 303.15 K [mPa·s]	viscosity, 308.15 K [mPa·s]
[3]	–	–	–	1.4307	1.4269	1.4246	–	–	–	–
[4]	1111.3	1107.3	1103.5	–	–	–	1659	12.62	9.618	7.539

C1COCCO1 [1,4-dioxane]
Details	mass density, 298.15 K [kg/m3]	mass density, 303.15 K [kg/m3]	mass density, 308.15 K [kg/m3]	refractive index, 298.15 K	refractive index, 303.15 K	refractive index, 308.15 K	speed of sound, 298.15 K	viscosity, 298.15 K [mPa·s]	viscosity, 303.15 K [mPa·s]	viscosity, 308.15 K [mPa·s]
[1]	–	–	–	1.4201	1.417	1.4143	–	–	–	–
[2]	1027.6	1021.9	1016.2	–	–	–	1347 m/s and 1343 m/s	1.166	1.069	0.984

C1COCCO1 [1,4-dioxane] + CCCCN(CCCC)CCCC
x1 = 1
Details	mass density, 298.15 K [kg/m3]	mass density, 303.15 K [kg/m3]	mass density, 308.15 K [kg/m3]	refractive index, 298.15 K	refractive index, 303.15 K	refractive index, 308.15 K	speed of sound, 298.15 K [m/s]	viscosity, 298.15 K [mPa·s]	viscosity, 303.15 K [mPa·s]	viscosity, 308.15 K [mPa·s]
[3]	–	–	–	1.4201	1.417	1.4143	–	–	–	–
[4]	1027.6	1021.9	1016.2	–	–	–	1343	1.166	1.069	0.984

C1COCCO1 [1,4-dioxane] + CCN(CC)CC
x1 = 1
Details	mass density, 298.15 K [kg/m3]	mass density, 303.15 K [kg/m3]	mass density, 308.15 K [kg/m3]	refractive index, 298.15 K	refractive index, 303.15 K	refractive index, 308.15 K	speed of sound, 298.15 K [m/s]	viscosity, 298.15 K [mPa·s]	viscosity, 303.15 K [mPa·s]	viscosity, 308.15 K [mPa·s]
[3]	–	–	–	1.4201	1.417	1.4143	–	–	–	–
[4]	1027.6	1021.9	1016.2	–	–	–	1343	1.166	1.069	0.984

CCCCCC [hexane]
Details	mass density, 298.15 K [kg/m3]	mass density, 303.15 K [kg/m3]	mass density, 308.15 K [kg/m3]	refractive index, 298.15 K	refractive index, 303.15 K	refractive index, 308.15 K	speed of sound, 298.15 K [m/s]	viscosity, 298.15 K [mPa·s]	viscosity, 303.15 K [mPa·s]	viscosity, 308.15 K [mPa·s]
[1]	–	–	–	1.3728	1.3698	1.367	–	–	–	–
[2]	654.8	649.7	644.8	–	–	–	1083	0.315	0.299	0.286

CCCCCC [hexane] + C1COCCO1
x2 = 0
Details	mass density, 298.15 K [kg/m3]	mass density, 303.15 K [kg/m3]	mass density, 308.15 K [kg/m3]	refractive index, 298.15 K	refractive index, 303.15 K	refractive index, 308.15 K	speed of sound, 298.15 K [m/s]	viscosity, 298.15 K [mPa·s]	viscosity, 303.15 K [mPa·s]	viscosity, 308.15 K [mPa·s]
[3]	–	–	–	1.3728	1.3698	1.367	–	–	–	–
[4]	654.8	649.7	644.8	–	–	–	1083	0.315	0.299	0.286

CCCCN(CCCC)CCCC [tributylamine]
Details	mass density, 298.15 K [kg/m3]	mass density, 303.15 K [kg/m3]	mass density, 308.15 K [kg/m3]	refractive index, 298.15 K	refractive index, 303.15 K	refractive index, 308.15 K	speed of sound, 298.15 K [m/s]	viscosity, 298.15 K [mPa·s]	viscosity, 303.15 K [mPa·s]	viscosity, 308.15 K [mPa·s]
[1]	–	–	–	1.4274	1.4251	1.4226	–	–	–	–
[2]	774.4	770.1	766.2	–	–	–	1261	1.36	1.221	1.125

CCN(CC)CC [triethylamine]
Details	mass density, 298.15 K [kg/m3]	mass density, 303.15 K [kg/m3]	mass density, 308.15 K [kg/m3]	refractive index, 298.15 K	refractive index, 303.15 K	refractive index, 308.15 K	speed of sound, 298.15 K [m/s]	viscosity, 298.15 K [mPa·s]	viscosity, 303.15 K [mPa·s]	viscosity, 308.15 K [mPa·s]
[1]	–	–	–	1.3983	1.3955	1.3926	–	–	–	–
[2]	723.1	718.5	713.6	–	–	–	1127	0.363	0.347	0.33
